Measured values as given in patent publication US11192890B2, “FGFR kinase inhibitors and pharmaceutical uses” (AUCKLAND UNISERVICES LIMITED, priority 2017, dated 2021).
Where two headings read alike, the source gives them in different places.

Assays:
[1] = tested on: FGFR4-amplified Hep3B hepatocellular carcinoma cells; test: Cell proliferation assay (SRB); type: cell-based; conditions: read-out: Cellular Anti-proliferative IC50, Hep3B
[2] = tested on: FGFR2-amplified SUM52 breast cancer cells; test: Cell proliferation assay (SRB); type: cell-based
[3] = tested on: FGFR3-amplified SW780 bladder cancer cells; test: Cell proliferation assay (SRB)
[4] = target: T1, FGFR3 (Homo sapiens, UniProt P22607); test: Isolated enzyme FRET-based Z-Lyte kinase inhibition assay; type: biochemical; conditions: means from 3 independent experiments; read-out: Isolate Enzyme Inhibition IC50, FGFR3
T1 construct: purchased Invitrogen
T1 sequence (P22607 23-806): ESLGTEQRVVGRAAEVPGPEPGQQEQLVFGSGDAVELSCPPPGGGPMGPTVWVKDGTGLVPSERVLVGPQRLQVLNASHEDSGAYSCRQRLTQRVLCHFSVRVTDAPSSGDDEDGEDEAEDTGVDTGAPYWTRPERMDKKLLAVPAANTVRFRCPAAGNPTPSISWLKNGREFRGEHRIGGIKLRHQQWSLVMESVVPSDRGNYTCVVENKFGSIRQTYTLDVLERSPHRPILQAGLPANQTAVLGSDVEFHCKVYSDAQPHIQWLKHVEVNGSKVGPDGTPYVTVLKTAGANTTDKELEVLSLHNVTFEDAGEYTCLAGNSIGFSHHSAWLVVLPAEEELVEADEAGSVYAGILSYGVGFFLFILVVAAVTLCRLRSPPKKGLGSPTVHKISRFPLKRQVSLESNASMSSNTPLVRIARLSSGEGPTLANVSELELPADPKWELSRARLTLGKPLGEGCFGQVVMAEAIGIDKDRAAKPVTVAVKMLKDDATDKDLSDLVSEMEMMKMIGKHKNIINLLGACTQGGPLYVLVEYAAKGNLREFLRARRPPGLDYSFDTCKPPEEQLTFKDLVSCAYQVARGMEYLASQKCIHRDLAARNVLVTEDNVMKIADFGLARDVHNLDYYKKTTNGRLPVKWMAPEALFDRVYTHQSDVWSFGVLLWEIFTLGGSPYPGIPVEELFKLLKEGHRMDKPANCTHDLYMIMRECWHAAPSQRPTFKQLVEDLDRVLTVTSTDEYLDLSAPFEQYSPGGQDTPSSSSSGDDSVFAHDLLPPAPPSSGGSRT
Method: (§1) FGFR1-4 and the Z-Lyte Kinase Assay Kit were purchased from Invitrogen. The concentration gradients from 5.1×10^−11 to 1.0×10^−6 mol/L were used for all the test compounds. The experiments were performed according to the instructions of the manufacturer.
(§2) FGFR1-4 isolated enzyme activity was determined using the FRET-based Z-Lyte kinase inhibition assay. The data are the means from 3 independent experiments.

[5] = target: T2, FGFR2 (Homo sapiens, UniProt P21802); test: as above; type: biochemical; conditions: means from 3 independent experiments; read-out: Isolate Enzyme Inhibition IC50, FGFR2
T2 construct: purchased Invitrogen
T2 sequence (P21802 22-821): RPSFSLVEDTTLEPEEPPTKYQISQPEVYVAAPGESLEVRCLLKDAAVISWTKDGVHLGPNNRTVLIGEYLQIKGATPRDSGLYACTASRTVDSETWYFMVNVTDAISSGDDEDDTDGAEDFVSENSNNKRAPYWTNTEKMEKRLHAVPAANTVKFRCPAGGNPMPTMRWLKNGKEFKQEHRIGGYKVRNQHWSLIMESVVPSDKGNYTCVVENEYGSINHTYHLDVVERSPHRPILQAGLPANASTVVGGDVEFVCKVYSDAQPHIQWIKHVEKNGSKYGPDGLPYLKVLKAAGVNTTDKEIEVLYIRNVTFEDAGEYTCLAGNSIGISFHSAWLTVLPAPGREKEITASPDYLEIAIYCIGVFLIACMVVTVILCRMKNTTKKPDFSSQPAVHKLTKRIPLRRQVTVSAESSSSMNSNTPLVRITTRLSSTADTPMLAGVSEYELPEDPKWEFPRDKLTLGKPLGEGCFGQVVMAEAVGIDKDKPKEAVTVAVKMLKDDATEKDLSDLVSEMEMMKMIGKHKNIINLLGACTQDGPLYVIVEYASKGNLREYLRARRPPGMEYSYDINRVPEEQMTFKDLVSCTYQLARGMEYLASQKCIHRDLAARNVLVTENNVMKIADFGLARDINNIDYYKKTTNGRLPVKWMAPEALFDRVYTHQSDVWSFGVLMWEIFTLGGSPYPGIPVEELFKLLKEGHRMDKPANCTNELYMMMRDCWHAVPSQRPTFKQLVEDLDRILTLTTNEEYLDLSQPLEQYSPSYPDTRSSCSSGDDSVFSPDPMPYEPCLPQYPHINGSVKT
Method: as §1, §2

[6] = target: T3, FGFR4 (Homo sapiens, UniProt P22455); test: as above; type: biochemical; conditions: means from 3 independent experiments; read-out: Isolate Enzyme Inhibition IC50, FGFR4
T3 construct: purchased Invitrogen
T3 sequence (P22455 22-802): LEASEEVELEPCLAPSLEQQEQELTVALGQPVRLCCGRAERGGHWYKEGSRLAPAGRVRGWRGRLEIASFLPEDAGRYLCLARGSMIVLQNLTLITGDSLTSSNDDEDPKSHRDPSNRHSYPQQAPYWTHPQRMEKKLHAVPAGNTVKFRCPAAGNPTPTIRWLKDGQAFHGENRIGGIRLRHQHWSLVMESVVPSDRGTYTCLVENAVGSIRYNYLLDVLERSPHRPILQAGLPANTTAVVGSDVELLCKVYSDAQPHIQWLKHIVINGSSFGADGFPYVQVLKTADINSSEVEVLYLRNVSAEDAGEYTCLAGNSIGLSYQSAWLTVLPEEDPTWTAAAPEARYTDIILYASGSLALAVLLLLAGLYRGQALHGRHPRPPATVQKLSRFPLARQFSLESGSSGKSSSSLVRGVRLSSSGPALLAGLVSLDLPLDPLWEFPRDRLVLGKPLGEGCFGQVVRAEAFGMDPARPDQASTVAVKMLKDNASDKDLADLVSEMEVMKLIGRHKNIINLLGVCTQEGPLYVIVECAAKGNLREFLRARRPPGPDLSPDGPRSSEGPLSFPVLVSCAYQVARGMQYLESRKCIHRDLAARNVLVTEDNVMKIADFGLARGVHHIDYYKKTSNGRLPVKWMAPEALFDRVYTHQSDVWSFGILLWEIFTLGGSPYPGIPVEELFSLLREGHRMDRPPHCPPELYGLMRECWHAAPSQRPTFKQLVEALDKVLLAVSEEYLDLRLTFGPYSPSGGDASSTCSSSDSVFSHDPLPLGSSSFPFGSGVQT
Method: as §1, §2

[7] = tested on: SW780 (FGFR3-amplified bladder cancer) xenograft; test: Anti-tumour activity, SW780 xenograft; type: in vivo, NIH-III nude mice; conditions: 30 umol/kg, q3dx4, IP
Method: Specific pathogen-free homozygous female NIH-III nude mice (Charles River Laboratories, Wilmington, Mass.) were inoculated subcutaneously with a single cell suspension of SW780 cells (8×10^6 cells/100 μL with Matrigel; right flank) or SNU-16 cells (10×10^6 cells/100 μL; right flank). When tumour xenografts were established (typically 7-14 days for SW780 and 21-28 days for SNU-16) mice were randomized to treatment groups. Test compounds of the present invention were prepared in Water for Injection (WFI). Mice were dosed by intraperitoneal injection (0.01-0.03 ml/g) using the stated schedules and dose levels. […] Tumour size and body weights were measured at regular intervals. Tumour volume was calculated as […] (length×width^2)/6.

[8] = tested on: H520 cells; test: Oxic and anoxic anti-proliferative activity of the prodrugs; conditions: for Hypoxic Cytotoxicity Ratio (HCR), H520: ratio of oxic and anoxic IC50
[9] = tested on: SW780 cells; test: as above; type: cell-based; conditions: Homo sapiens, SW780; oxic conditions; read-out: Cellular Anti-proliferative IC50, SW780, Oxic
[10] = tested on: SUM52 cells; test: as above; conditions: for Hypoxic Cytotoxicity Ratio (HCR), SUM52: ratio of oxic and anoxic IC50
[11] = tested on: FGFR3 in SW780 cells (phospho-ERK1/2); test: Drug washout Western blot assay, SW780 cells; type: cell-based; conditions: SW780; for phospho-ERK1/2 after extensive drug washout: washout prior to FGF-stimulation
[12] = tested on: FGFR2 in SUM52 cells (phospho-ERK1/2); test: Drug washout Western blot assay, SUM52 cells; type: cell-based; conditions: SUM52; for phospho-ERK1/2 after extensive drug washout: washout prior to FGF-stimulation
Method: Cells were seeded on the day prior to drug treatment (1 million cells/well; 6-well plate).
Drug stocks were prepared in media using 1 mM or 10 mM DMSO stock solutions. Media was aspirated from each well and replaced with 2 ml of drug-free media for control wells or 2 ml of diluted drug for treated wells. Cells were exposed to drug for 30 min. Recombinant FGF (50 ng/well) was added to each well 15 minutes prior to the end of the drug exposure and protein was extracted as below.
Cells were exposed to drug for 30 min as above. Media was aspirated and each well was washed with 5 ml drug-free media. The wash media was aspirated and replaced with 2 ml drug-free media and cells incubated for a further 30 minutes, after which the wash protocol was repeated. Cells were incubated for a further 90 minutes in drug-free media. Recombinant FGF (50 ng/well) was added to each well 15 minutes prior to the end of the drug-free incubation and protein was extracted as below.
Cell lysates were prepared in 250 μL of RIPA lysis buffer containing protease inhibitor (1:100). After incubation on ice (30 min) and centrifugation (13,000 rpm, 5 min, 4° C.) the supernatants containing the proteins were stored (−20° C.) until required. Bicinchoninic acid (BCA) assay was used to determine the protein concentration of individual cell lysate samples.

[13] = tested on: FGFR1 in H520 cells (phospho-ERK1/2); test: Drug washout Western blot assay, H520 cells; type: cell-based; conditions: H520, 30 min, washout prior to FGF-stimulation
[14] = SUM52, 120 h, read-out: Cellular Anti-proliferative IC50, SUM52, 5 days drug exposure
[15] = Homo sapiens, SW780, 120 h, read-out: Cellular Anti-proliferative IC50, SW780, 5 days drug exposure
[16] = read-out: Cellular Anti-proliferative IC50, H520, Anoxic, 4 hours of anoxia, remainder of assay oxic
[17] = read-out: Cellular Anti-proliferative IC50, H520, Oxic, oxic conditions
[18] = read-out: Cellular Anti-proliferative IC50, SUM52, Anoxic, 4 hours of anoxia, remainder of assay oxic
[19] = read-out: Cellular Anti-proliferative IC50, SUM52, Oxic, oxic conditions
[20] = read-out: Cellular Anti-proliferative IC50, SUM52, 5 days drug exposure
[21] = read-out: Cellular Anti-proliferative IC50, SW780, 5 days drug exposure
[22] = 100 nM, 30 min, then FGF-stimulation
[23] = 30 min exposure, 100 nM, with and without washout

Row | IC50 [8, 17] [nM] | IC50 [9] [nM] | SMILES | IC50 ([1]; Homo sapiens, Hep3B) [nM] | IC50 [6] [nM] | anti-tumour activity (median tumour growth delay) [7] | Hypoxic Cytotoxicity Ratio (HCR), SUM52 [10] | IC50 [10, 18] [nM] | IC50 [10, 19] [nM] | further results
1 | – | – | CNc1ncc2c(n1)N([C@@H]1CCN(C(=O)/C=C/CN(C)C)C1)C(=O)N(c1c(Cl)c(OC)cc(OC)c1Cl)C2 [Compound 102, (R,E)-3-(2,6-dichloro-3,5-dimethoxyphenyl)-1-(1-(4-(dimethylamino)but-2-enoyl)pyrrolidin-3-yl)-7-(methylamino)-3,4-dihydropyrimido[4,5-d]pyrimidin-2(1H)-one] | 1430 | > 1000 | – | – | – | – | IC50 [2, 14]: 51 nM; IC50 [3, 15]: 700 nM; IC50 [4]: 703 nM; IC50 [5]: 15 nM
2 | 1480 | 1570 | COc1cc(OC)c(Cl)c(-c2cc3cnc(NC(C)C)nc3n(C3CCN(C(=O)/C=C/C[N+](C)(C)Cc4c([N+](=O)[O-])ncn4C)CC3)c2=O)c1Cl.[Br-] [Compound 209, (E)-4-(4-(6-(2,6-dichloro-3,5-dimethoxyphenyl)-2-(isopropylamino)-7-oxopyrido[2,3-d]pyrimidin-8(7H)-yl)piperidin-1-yl)-N,N-dimethyl-N-((1-methyl-4-nitro-1H-imidazol-5-yl)methyl)-4-oxobut-2-en-1-aminium bromide] | – | – | significant anti-tumour activity | 68 | 4 | 269 | Hypoxic Cytotoxicity Ratio (HCR), H520 [8]: 36; IC50 [8, 16]: 41 nM
3 | 817 | 754 | COc1cc(OC)c(Cl)c(-c2cc3cnc(Nc4ccccc4)nc3n(C3CCN(C(=O)/C=C/C[N+](C)(C)Cc4c([N+](=O)[O-])ncn4C)CC3)c2=O)c1Cl.[Br-] [Compound 211, (E)-4-(4-(6-(2,6-dichloro-3,5-dimethoxyphenyl)-7-oxo-2-(phenylamino)pyrido[2,3-d]pyrimidin-8(7H)-yl)piperidin-1-yl)-N,N-dimethyl-N-((1-methyl-4-nitro-1H-imidazol-5-yl)methyl)-4-oxobut-2-en-1-aminium bromide] | – | – | significant anti-tumour activity | 16 | 12 | 199 | Hypoxic Cytotoxicity Ratio (HCR), H520 [8]: 20; IC50 [8, 16]: 41 nM
4 | – | – | CNc1ncc2c(n1)N([C@H]1CCCN(C(=O)/C=C/CN(C)C)C1)C(=O)N(c1c(Cl)c(OC)cc(OC)c1Cl)C2 [Compound 101, (S,E)-3-(2,6-dichloro-3,5-dimethoxyphenyl)-1-(1-(4-(dimethylamino)but-2-enoyl)piperidin-3-yl)-7-(methylamino)-3,4-dihydropyrimido[4,5-d]pyrimidin-2(1H)-one] | – | < 100 | – | – | – | – | IC50 [1]: 163 nM; IC50 [2, 20]: 9 nM; IC50 [3, 21]: 59 nM
5 | – | – | CNc1ncc2c(n1)N([C@H]1CCN(C(=O)/C=C/CN(C)C)C1)C(=O)N(c1c(Cl)c(OC)cc(OC)c1Cl)C2 [Compound 103, (S,E)-3-(2,6-dichloro-3,5-dimethoxyphenyl)-1-(1-(4-(dimethylamino)but-2-enoyl)pyrrolidin-3-yl)-7-(methylamino)-3,4-dihydropyrimido[4,5-d]pyrimidin-2(1H)-one] | 48 | 287 | – | – | – | – | inhibition of phosphorylation of ERK1/2, no washout [11, 22]: complete inhibition; phospho-ERK1/2 after extensive drug washout ([11]; 100 nM, 30 min): restoration; phospho-ERK1/2 after extensive drug washout ([11]; 1000 nM, 30 min): restoration; reversible or irreversible inhibition of FGFR3 in cells [11, 23]: reversible inhibitor; IC50 [2, 14]: 4.8 nM; IC50 [3, 15]: 31 nM; IC50 [4]: 17 nM; IC50 [5]: 3.3 nM; inhibition of phosphorylation of ERK1/2, no washout [12, 22]: complete inhibition; phospho-ERK1/2 after extensive drug washout ([12]; 100 nM, 30 min): restoration; phospho-ERK1/2 after extensive drug washout ([12]; 1000 nM, 30 min): restoration; reversible or irreversible inhibition of FGFR2 in cells [12, 23]: reversible inhibitor; phospho-ERK1/2 after extensive drug washout ([13]; 100 nM): restoration; phospho-ERK1/2 after extensive drug washout ([13]; 1000 nM): restoration
6 | – | – | CNc1ncc2c(n1)N([C@H]1CCCN(C(=O)/C=C/CN(C)C)C1)C(=O)N(c1c(Cl)c(OC)cc(OC)c1Cl)C2 [Compound 100, (S,E)-3-(2,6-dichloro-3,5-dimethoxyphenyl)-1-(1-(4-(dimethylamino)but-2-enoyl)piperidin-3-yl)-7-(methylamino)-3,4-dihydropyrimido[4,5-d]pyrimidin-2(1H)-one] | 245 | – | – | – | – | – | IC50 [2, 20]: 3.3 nM; IC50 [3, 21]: 28 nM
7 | 4150 | 2580 | CNc1ncc2cc(-c3c(Cl)c(OC)cc(OC)c3Cl)c(=O)n(C3CCN(C(=O)/C=C/C[N+](C)(C)Cc4c([N+](=O)[O-])ncn4C)CC3)c2n1.[Br-] [Compound 208, (E)-4-(4-(6-(2,6-dichloro-3,5-dimethoxyphenyl)-2-(methylamino)-7-oxopyrido[2,3-d]pyrimidin-8(7H)-yl)piperidin-1-yl)-N,N-dimethyl-N-((1-methyl-4-nitro-1H-imidazol-5-yl)methyl)-4-oxobut-2-en-1-aminium bromide] | – | – | significant anti-tumour activity | 5 | 3 | 13 | time for tumours to reach 4 times relative tumour volume (RTV4) ([7]; control 12 days): ~24 days
8 | – | – | COc1cc(OC)c(Cl)c(-c2cc3cnc(NC(C)C)nc3n(Cc3cccc(NC(=O)/C=C/C[N+](C)(C)Cc4c([N+](=O)[O-])ncn4C)c3)c2=O)c1Cl.[Br-] [Compound 213, (E)-4-((3-((6-(2,6-dichloro-3,5-dimethoxyphenyl)-2-(isopropylamino)-7-oxopyrido[2,3-d]pyrimidin-8(7H)-yl)methyl)phenyl)amino)-N,N-dimethyl-N-((1-methyl-4-nitro-1H-imidazol-5-yl)methyl)-4-oxobut-2-en-1-aminium bromide] | – | – | significant anti-tumour activity | 5 | 7 | 40 | –
